Key:
[1] = system: normal human lung fibroblast Wi-38 cell line; assay: MTT cytotoxicity on normal cells; format: cell-based; conditions: Wi-38, 72 h, MTT, mean ± SEM; for EC50: Homo sapiens, 50% cell viability; for Wi-38 EC100: safe dose, 100% cell viability
Description: Cytotoxicity of the tested compounds was evaluated using normal human lung fibroblast Wi-38 cell line compared to currently used anticancer drug (doxorubicin) using MTT method was used for assaying cell viability[26] (Supplementary Page S55).
Cytotoxicity test is one of the biological evaluations and screening tests that use human normal and cancer cells in-vitro to observe the effect of the studied compounds on their growth using MTT-based cytotoxicity. Microculture MTT method[26] was used to determine cytotoxic activity of the newly synthesised compounds against normal human lung fibroblast (Wi-38) using doxorubicin (Dox) as standard anticancer drug. The highest IC50 and EC100 values illustrate that the compounds were safe on the proliferation of normal human cells. […]. page 47:
(§1) Cytotoxicity of the tested compounds was evaluated using normal human lung fibroblast Wi-38 cell line compared to currently used anticancer drug (doxorubicin).
Firstly, Wi-38 cell line was subcultured in DMEM medium-contained 10% fetal bovine serum (FBS), then, seeded as 5x10^3 cells per well in 96-well cell culture plate and incubated at 37 °C in 5% CO 2 incubator. Serial concentrations of these compounds and doxorubicin (Dox) were incubat ed with Wi-38 cells for 72 h after 24 h for cell attachment. MTT method was used for assaying cell viability 25. Twenty microliters of 5 mg/ml MTT (Sigma, USA) was added to each well and the plate was incubated at 37 °C for 3 h. Then MTT solution was removed, 100 µl DMSO was used and the absorbance of each well was measured with a microplate reader ( BMG LabTech, Germany) at 570 nm. The effective concentration (IC 50) and safe dose (EC100) values of the tested compounds that cause 50% and 100% cell viability were estimated by the Graphpad Instat software. […]

[2] = system: myeloid leukaemia cell line (NFS-60); assay: MTT anticancer activity, NFS-60; format: cell-based; conditions: NFS-60, 72 h, MTT; mean ± SEM
Description: (§2) Anticancer effect of the above-mentioned compounds was evaluated using four human cancer cell lines. Colon cancer cells (Caco-2), myeloid leukaemia cell line (NFS-60), liver cancer cell line (HepG-2) and prostate cancer cell line (PC-3) using MTT method was used for assaying cell viability[26] (Supplementary Page S55).
(§3) All final compounds were evaluated against four human cancer cell lines namely; liver cancer (HepG2) (ATCC® HB-8065™), colon cancer (Caco-2) (ATCC® HTB-37™), leukaemia cancer (NFS-60) (ATCC® CRL-1838™), and prostate cancer (PC-3) (ATCC® CRL-1435™) using doxorubicin (Dox) as the reference drug being widely used in tumour management utilising microculture MTT assay, declared by Mosmann[26] (Table 1 in Supplementary Material, Figures 5–8). […]
(§4) MTT method was used for assaying cell viability 25. Twenty microliters of 5 mg/ml MTT (Sigma, USA) was added to each well and the plate was incubated at 37 °C for 3 h. Then MTT solution was removed, 100 µl DMSO was used and the absorbance of each well was measured with a microplate reader ( BMG LabTech, Germany) at 570 nm. The effective concentration (IC 50) and safe dose (EC100) values of the tested compounds that cause 50% and 100% cell viability were estimated by the Graphpad Instat software.
(§5) Determination of the anticancer activity
(§6) Anticancer effect of the above-mentioned compounds was evaluated using four human cancer cell lines. Colon cancer cells (Caco-2) were maintained in DMEM (Lonza, USA) containing 10% FBS while myeloid leukemia cell line (NFS-60), liver cancer cell line (HepG-2) and prostate cancer cell line (PC-3) were cultured in RPMI-1640 (Lonza, USA) supplemented with 10% FBS. All cancer cells (5x10^3 cells/well) were seeded in sterile 96-well plates. After 24h, serial concentrations of the tested compounds and Dox were incubated with four cancer cell lines for 72 h at 37 °C in 5% CO2 incubator. MTT method was done as described above. The Graphpad Instat software was used for calculating the half maximal inhibitory concentration (IC50) values. Furthermore, phase contrast inverted microscope with a digital camera (Olympus, Japan) was used for investigating […]
(§7) safest anticancer compounds. […]

[3] = system: liver cancer cell line (HepG-2); assay: MTT anticancer activity, HepG-2; format: cell-based, human; conditions: Homo sapiens, HepG2; HepG-2, 72 h, MTT; mean ± SEM
Description: as §2, §3, §4, §5, §6, §7

[4] = system: Colon cancer cells (Caco-2); assay: MTT anticancer activity, Caco-2; format: cell-based, human; conditions: for IC50: Caco-2, 72 h, MTT, mean ± SEM; for Caco-2 SI: selectivity index, Wi-38 versus Caco-2
Description: as §2
All final compounds were evaluated against four human cancer cell lines namely; liver cancer (HepG2) (ATCC® HB-8065™), colon cancer (Caco-2) (ATCC® HTB-37™), leukaemia cancer (NFS-60) (ATCC® CRL-1838™), and prostate cancer (PC-3) (ATCC® CRL-1435™) using doxorubicin (Dox) as the reference drug being widely used in tumour management utilising microculture MTT assay, declared by Mosmann[26] (Table 1 in Supplementary Material, Figures 5–8).
as §1
Firstly, Wi-38 cell line was subcultured in DMEM medium-contained 10% fetal bovine serum (FBS), then, seeded as 5x10^3 cells per well in 96-well cell culture plate and incubated at 37 °C in 5% CO 2 incubator. Serial concentrations of these compounds and doxorubicin (Dox) were incubat ed with Wi-38 cells for 72 h after 24 h for cell attachment. MTT method was used for assaying cell viability 25. Twenty microliters of 5 mg/ml MTT (Sigma, USA) was added to each well and the plate was incubated at 37 °C for 3 h. Then MTT solution was removed, 100 µl DMSO was used and the absorbance of each well was measured with a microplate reader ( BMG LabTech, Germany) at 570 nm. The effective concentration (IC 50) and safe dose (EC100) values of the tested compounds that cause 50% and 100% cell viability were estimated by the Graphpad Instat software.
as §5, §6, §7

[5] = system: prostate cancer cell line (PC-3); assay: MTT anticancer activity, PC-3; format: cell-based, human; conditions: PC-3, 72 h, mean ± SEM
Description: as §2, §3, §4, §5, §6, §7

Row | Structure (SMILES) | EC50 [1] [µM] | Wi-38 EC100 [1] [µM] | IC50 [2] [µM] | melting point [°C] | IC50 [3] [µM] | IC50 ([4]; Homo sapiens) [µM] | Caco-2 SI [4] | IC50 ([5]; Homo sapiens, 72 h) [µM] | IC50 [5] [µM] | IC50 [4] [µM]
1 | N#Cc1c(-c2cc3ccccc3nc2N2CCOCC2)cc(-c2cccc(O)c2)[nH]c1=O [5a, 6-(3-Hydroxyphenyl)-4-(morpholin-4-yl-quinolin-3-yl)-2-oxo-1,2-dihydropyridine-3-carbonitrile] | 0.0603 ± 0.04 | 0.0192 ± 0.003 | 0.03162 ± 0.0001 | > 300 | 0.0344 ± 0.006 | 0.0388 ± 0.008 | 1.554 |  |  | 
2 | N#Cc1c(-c2cc3ccccc3nc2N2CCCCC2)cc(-c2cccc(O)c2)[nH]c1=O [5d, 6-(3-Hydroxyphenyl)-2-oxo-4-(2-(piperidin-1-yl)quinoline-3-yl)-1,2-dihydropyridine-3-carbonitrile] | 0.0299 ± 0.0001 | 0.0239 ± 0.0003 | 0.0713 ± 0.003 | 244 to 246 | 0.0897 ± 0.013 | 0.0386 ± 0.001 | 0.775 | 0.0534 ± 0.004 |  | 
3 | N#Cc1c(-c2cc3cc(Cl)ccc3nc2N2CCCCC2)cc(-c2cccc(O)c2)[nH]c1=O [5e, 4-(6-Chloro-2-(piperidin-1-yl)quinoline-3-yl)-6-(3-hydroxyphenyl)-2-oxo-1,2-dihydropyridine-3-carbonitrile] | 0.0276 ± 0.001 | 0.0234 ± 0.001 | 0.0627 ± 0.027 | > 300 | 0.0361 ± 0.001 | 0.0517 ± 0.005 | 0.534 | 0.0409 ± 0.001 |  | 
4 | COc1ccc2nc(N3CCCCC3)c(-c3cc(-c4cccc(O)c4)[nH]c(=O)c3C#N)cc2c1 [5f, 6-(3-Hydroxyphenyl)-4-(6-methoxy-2-(piperidin-1-yl)quinolin-3-yl)-2-oxo-1,2-dihydropyridine-3-carbonitrile] | 0.0298 ± 0.002 | 0.0258 ± 0.008 | 0.04283 ± 0.0003 | 265 to 267 | 0.0378 ± 0.01 | 0.0508 ± 0.004 | 0.587 | 0.0451 ± 0.0001 |  | 
5 | N#Cc1c(-c2cc3ccccc3nc2N2CCOCC2)cc(-c2cccc(O)c2)nc1S [6a, 6-(3-Hydroxyphenyl)-4-(2-morpholin-4-yl-quinolin-3-yl)-2-mercaptopyridine-3-carbonitrile] | 0.181 ± 0.005 | 0.0785 ± 0.003 | 0.135 ± 0.002 | 240 to 242 | 0.074 ± 0.002 | 0.104 ± 0.004 | 1.740 | 0.127 ± 0.002 |  | 
6 | N#Cc1c(-c2cc3cc(Cl)ccc3nc2N2CCOCC2)cc(-c2cccc(O)c2)nc1S [6b, 4-(6-Chloro-2-morpholin-4-yl-quinolin-3-yl)-6-(3-hydroxyphenyl)-2-mercaptopyridine-3-carbonitrile] | 0.138 ± 0.002 | 0.0493 ± 0.001 | 0.204 ± 0.006 | 260 to 261 | 0.0466 ± 0.001 | 0.0552 ± 0.003 | 2.500 | 0.119 ± 0.014 |  | 
7 | COc1ccc2nc(N3CCOCC3)c(-c3cc(-c4cccc(O)c4)nc(S)c3C#N)cc2c1 [6c, 6-(3-Hydroxyphenyl)-4-(6-methoxy-2-morpholin-4-yl-quinolin-3-yl)-2-mercaptopyridine-3-carbonitrile] | 0.376 ± 0.001 | 0.177 ± 0.011 | 0.145 ± 0.015 | > 300 | 0.0848 ± 0.002 | 0.0999 ± 0.003 | 3.764 | 0.1008 ± 0.0001 |  | 
8 | N#Cc1c(-c2cc3cc(Cl)ccc3nc2N2CCOCC2)cc(-c2cccc(O)c2)nc1OCC(=O)Nc1ccccc1 [11d, 2-((4-(6-Chloro-2-morpholin-4-yl-quinolin-3-yl)-3-cyano-6-(3-hydroxyphenyl)pyridin-2-yl)oxy)-N-phenylacetamide] | 0.107 ± 0.001 | 0.0455 ± 0.002 |  | 277 to 280 | 0.0458 | < 0.1 | 2.054 | < 0.1 | 0.0594 ± 0.001 | 0.0521 ± 0.002
9 | N#Cc1c(-c2cc3cc(Cl)ccc3nc2N2CCOCC2)cc(-c2cccc(O)c2)nc1OCC(=O)Nc1ccc(Cl)cc1 [11e, 2-((4-(6-Chloro-2-morpholin-4-yl-quinolin-3-yl)-3-cyano-6-(3-hydroxyphenyl)pyridin-2-yl)oxy)-N-(4-chlorophenyl)acetamide] | 0.085 ± 0.003 | 0.0178 ± 0.0001 |  | > 300 | 0.0416 |  | 2.733 |  |  | 
10 | COc1ccc(NC(=O)COc2nc(-c3cccc(O)c3)cc(-c3cc4cc(Cl)ccc4nc3N3CCOCC3)c2C#N)cc1 [11f, 2-((4-(6-Chloro-2-morpholin-4-yl-quinolin-3-yl)-3-cyano-6-(3-hydroxyphenyl)pyridin-2-yl)oxy)-N-(4-methoxyphenyl)acetamide] | 0.181 ± 0.013 | 0.0347 ± 0.003 |  | 228 to 230 | 0.0363 |  | 5.262 |  |  | 

Reference: article PMC9848351, “Discovery of new pyridine-quinoline hybrids as competitive and non-competitive PIM-1 kinase inhibitors with apoptosis induction and caspase 3/7 activation capabilities” (Journal of Enzyme Inhibition and Medicinal Chemistry, 2023)
